Results: ChEMBL document CHEMBL1126702, “Modeling the anticancer action of some retinoid compounds by making use of the OASIS method” (J Med Chem, 1993)

How the values were obtained:
[1] = tested on: Cricetinae gen. sp.; assay: Tested for anticancer activity against hamster tracheal cells; format: functional, Trachea
[2] = Partition coefficient (logP); format: physicochemical; details: octanol/water

logP ([2]; read-out: logP)	logP [2]	SMILES	-Log ED50 [1]
6.63		CC(=O)C1=C(/C=C/C(C)=C/C=C/C(C)=C/C=O)C(C)(C)CC1	9.3
4.2		CC(=O)/C=C(C)/C=C/C=C(C)/C=C/C1(O)C(C)(C)CCCC1(C)O (stereo not drawn)	6.7
5.08		CC(=O)/C=C(C)/C=C/C=C(C)/C=C/C12OC1(C)CCCC2(C)C (stereo not drawn)	8.52
6.63		CC1=C(/C=C/C(C)=C/C=C/C(C)=C/C=O)C(C)(C)CCC1=O	9.15
6.58		COC(C)C1=C(/C=C/C(C)=C/C=C/C(C)=C/C=O)C(C)(C)CC1 (stereo not drawn)	9.7
8.12		CCC(=O)/C=C(C)/C=C/C=C(C)/C=C/C1=C(C)CCCC1(C)C	9.3
7.63		CC(=O)/C=C(C)/C=C/C=C(C)/C=C/C1=C(C)CCCC1(C)C	9.52
6.1		CC1=C(/C=C/C(C)=C/C=C/C(C)=C/C=O)C(C)(C)CCC1O (stereo not drawn)	9.15

The next lines start with the molecule.

SMILES	logP ([2]; read-out: logP)	logP [2]	-Log ED50 [1]
CCC(=O)/C=C(C)/C=C/C=C(C)/C=C/c1c(C)cc(O)c(C)c1C	7.34		7
COc1cc(C)c(/C=C/C(C)=C/C=C/C(C)=C/C=O)c(C)c1C	6.57		8.3
CC(/C=C/C=C(C)/C=C/c1ccco1)=C\C=O	3.69		6
CCC(=O)/C=C(C)/C=C/C=C(C)/C=C/c1c(C)cc(OC)c(C)c1C	7.22		7.7
CC(/C=C/C=C(C)/C=C/c1ccccc1)=C\C=O	5.37		6
CC(/C=C/C=C(C)/C=C/c1cccnc1)=C\C=O	4.69		6.52
CC(/C=C/C=C(C)/C=C/C1C(C)CCCC1(C)C)=C\C=O (stereo not drawn)	7.29		<9
CC(/C=C/C=C(C)/C=C/c1ccsc1)=C\C=O	4.13		>8
CC(/C=C/C=C(C)/C=C/C12OC1(C)CCCC2(C)C)=C\C=O (stereo not drawn)	4.91		8.7
CC1=CCCC(C)(C)C1/C=C/C(C)=C/C=C/C(C)=C/C=O (stereo in doubt; 16)		7.09	<8
CC1=CCCC(C)(C)C1/C=C/C(C)=C/C=C/C(C)=C/C=O (stereo in doubt; 19)	7.47		10.52
